# Calls of active or inactive are those of the source. No cut-off for these calls is given here.
# Experiments:
# [1] = biological target: T1, Protein cereblon/Cyclin-K/Cyclin-dependent kinase 12 (Homo sapiens, UniProt O75909+Q9NYV4+Q96SW2); assay: Protac activity at human CRBN/CDK12/CycK in human Bel-7402 cells assessed as downregulation of Mcl-1 level upto 30 uM measured after 24 hrs by Western blotting assay; format: cell-based; settings: dose microM <=30, time 24.0 hrs
# Target sequence in this assay (O75909 whole entry, looked up): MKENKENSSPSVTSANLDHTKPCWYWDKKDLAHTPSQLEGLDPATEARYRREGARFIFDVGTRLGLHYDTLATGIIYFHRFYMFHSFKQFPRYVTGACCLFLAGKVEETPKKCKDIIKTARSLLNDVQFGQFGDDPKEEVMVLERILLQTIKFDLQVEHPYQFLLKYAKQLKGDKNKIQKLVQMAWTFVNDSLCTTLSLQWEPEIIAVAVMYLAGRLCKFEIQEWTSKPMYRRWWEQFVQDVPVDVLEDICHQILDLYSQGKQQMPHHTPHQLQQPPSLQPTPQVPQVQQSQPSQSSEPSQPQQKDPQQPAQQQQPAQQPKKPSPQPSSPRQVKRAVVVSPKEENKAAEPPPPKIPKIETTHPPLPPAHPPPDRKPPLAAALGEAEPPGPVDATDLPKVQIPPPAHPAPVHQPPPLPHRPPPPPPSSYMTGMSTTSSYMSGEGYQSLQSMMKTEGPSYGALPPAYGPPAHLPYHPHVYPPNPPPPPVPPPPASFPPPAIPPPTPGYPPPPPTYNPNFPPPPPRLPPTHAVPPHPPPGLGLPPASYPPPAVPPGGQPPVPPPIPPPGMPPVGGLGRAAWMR
# Target sequence in this assay (Q96SW2 whole entry, looked up): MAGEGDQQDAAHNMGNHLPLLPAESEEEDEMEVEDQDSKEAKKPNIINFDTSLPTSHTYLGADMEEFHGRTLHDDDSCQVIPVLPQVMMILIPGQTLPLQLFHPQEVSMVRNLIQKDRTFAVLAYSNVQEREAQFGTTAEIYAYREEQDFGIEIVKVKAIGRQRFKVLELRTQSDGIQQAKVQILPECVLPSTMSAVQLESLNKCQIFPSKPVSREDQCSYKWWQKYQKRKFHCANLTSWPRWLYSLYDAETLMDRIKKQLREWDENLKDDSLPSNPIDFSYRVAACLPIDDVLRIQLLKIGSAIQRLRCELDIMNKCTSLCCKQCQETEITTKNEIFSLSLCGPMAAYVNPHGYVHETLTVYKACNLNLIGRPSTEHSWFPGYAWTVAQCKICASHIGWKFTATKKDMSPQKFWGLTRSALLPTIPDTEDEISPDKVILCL
# Target sequence in this assay (Q9NYV4 whole entry, looked up): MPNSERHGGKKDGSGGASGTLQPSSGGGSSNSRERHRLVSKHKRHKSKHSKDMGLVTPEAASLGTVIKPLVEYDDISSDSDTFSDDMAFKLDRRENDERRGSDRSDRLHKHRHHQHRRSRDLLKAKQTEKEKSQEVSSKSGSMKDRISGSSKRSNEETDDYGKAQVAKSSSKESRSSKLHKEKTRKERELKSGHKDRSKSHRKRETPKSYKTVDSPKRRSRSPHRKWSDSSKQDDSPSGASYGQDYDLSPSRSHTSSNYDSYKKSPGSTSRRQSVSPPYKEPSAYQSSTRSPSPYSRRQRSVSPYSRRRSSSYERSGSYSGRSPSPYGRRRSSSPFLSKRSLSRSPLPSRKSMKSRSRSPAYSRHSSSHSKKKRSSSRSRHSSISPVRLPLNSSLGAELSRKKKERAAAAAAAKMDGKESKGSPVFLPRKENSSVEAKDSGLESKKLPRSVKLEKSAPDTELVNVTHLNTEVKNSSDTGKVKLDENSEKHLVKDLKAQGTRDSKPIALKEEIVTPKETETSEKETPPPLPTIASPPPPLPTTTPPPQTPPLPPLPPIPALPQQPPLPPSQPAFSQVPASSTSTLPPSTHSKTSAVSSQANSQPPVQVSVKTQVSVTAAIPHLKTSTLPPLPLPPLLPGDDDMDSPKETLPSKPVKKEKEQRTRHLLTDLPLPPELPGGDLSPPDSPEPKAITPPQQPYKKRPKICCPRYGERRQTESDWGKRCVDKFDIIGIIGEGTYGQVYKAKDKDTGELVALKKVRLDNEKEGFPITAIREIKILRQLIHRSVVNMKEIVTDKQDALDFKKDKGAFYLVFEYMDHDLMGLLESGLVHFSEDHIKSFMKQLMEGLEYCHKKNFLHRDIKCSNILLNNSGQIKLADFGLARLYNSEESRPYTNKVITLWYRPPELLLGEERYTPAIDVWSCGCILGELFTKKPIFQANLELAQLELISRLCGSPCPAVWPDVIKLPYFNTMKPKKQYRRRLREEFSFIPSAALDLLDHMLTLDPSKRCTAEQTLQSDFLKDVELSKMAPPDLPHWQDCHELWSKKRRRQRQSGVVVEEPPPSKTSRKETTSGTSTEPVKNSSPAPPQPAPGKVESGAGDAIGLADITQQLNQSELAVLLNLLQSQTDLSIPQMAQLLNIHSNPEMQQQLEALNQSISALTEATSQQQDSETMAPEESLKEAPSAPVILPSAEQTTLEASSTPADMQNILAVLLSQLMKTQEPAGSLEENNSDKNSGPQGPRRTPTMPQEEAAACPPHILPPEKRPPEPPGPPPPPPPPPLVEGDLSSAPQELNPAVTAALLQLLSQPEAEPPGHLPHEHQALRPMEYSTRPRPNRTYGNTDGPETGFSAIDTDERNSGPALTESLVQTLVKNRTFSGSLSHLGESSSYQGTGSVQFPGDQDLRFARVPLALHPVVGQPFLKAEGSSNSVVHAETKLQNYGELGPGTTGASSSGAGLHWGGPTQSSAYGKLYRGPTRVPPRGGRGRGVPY
# [2] = biological target: T1, Protein cereblon/Cyclin-K/Cyclin-dependent kinase 12; assay: Protac activity at human CRBN/CDK12/CycK in human Bel-7402 cells assessed as RNAP2 CTD Ser2 phosphorylation level at 0.1 to 30 uM measured after 24 hrs by Western blotting assay; format: cell-based; settings: dose 0.1-30 µM
# Target sequence in this assay (O75909 whole entry, looked up): as the sequence (O75909 whole entry, looked up) above
# Target sequence in this assay (Q96SW2 whole entry, looked up): as the sequence (Q96SW2 whole entry, looked up) above
# Target sequence in this assay (Q9NYV4 whole entry, looked up): as the sequence (Q9NYV4 whole entry, looked up) above
# [3] = biological target: T1, Protein cereblon/Cyclin-K/Cyclin-dependent kinase 12; assay: Protac activity at human CRBN/CDK12/CycK in human Bel-7402 (CRBN/KO) cells assessed as degradation of CDK12 measured after 24 hrs by Western blotting assay; format: cell-based
# Target sequence in this assay (O75909 whole entry, looked up): as the sequence (O75909 whole entry, looked up) above
# Target sequence in this assay (Q96SW2 whole entry, looked up): as the sequence (Q96SW2 whole entry, looked up) above
# Target sequence in this assay (Q9NYV4 whole entry, looked up): as the sequence (Q9NYV4 whole entry, looked up) above
# [4] = biological target: T1, Protein cereblon/Cyclin-K/Cyclin-dependent kinase 12; assay: Protac activity at human CRBN/CDK12/CycK in human MDA-MB-231 cells assessed as degradation of CDK12 at 1 to 3 uM for 24 hrs in presence of MG132 by Western blotting assay; format: cell-based; settings: dose 1-3 µM
# Target sequence in this assay (O75909 whole entry, looked up): as the sequence (O75909 whole entry, looked up) above
# Target sequence in this assay (Q96SW2 whole entry, looked up): as the sequence (Q96SW2 whole entry, looked up) above
# Target sequence in this assay (Q9NYV4 whole entry, looked up): as the sequence (Q9NYV4 whole entry, looked up) above
# [5] = biological target: T1, Protein cereblon/Cyclin-K/Cyclin-dependent kinase 12; assay: Protac activity at human CRBN/CDK12/CycK in human MDA-MB-231 cells assessed as degradation of CycK a 1 to 3 uM for 24 hrs in presence of MG132 by Western blotting assay; format: cell-based; settings: dose 1-3 µM
# Target sequence in this assay (O75909 whole entry, looked up): as the sequence (O75909 whole entry, looked up) above
# Target sequence in this assay (Q96SW2 whole entry, looked up): as the sequence (Q96SW2 whole entry, looked up) above
# Target sequence in this assay (Q9NYV4 whole entry, looked up): as the sequence (Q9NYV4 whole entry, looked up) above
# [6] = biological target: T1, Protein cereblon/Cyclin-K/Cyclin-dependent kinase 12; assay: Protac activity at human CRBN/CDK12/CycK in human Bel-7402 cells assessed as downregulation of ATR measured after 6 hrs by RT-qPCR method; format: cell-based
# Target sequence in this assay (O75909 whole entry, looked up): as the sequence (O75909 whole entry, looked up) above
# Target sequence in this assay (Q96SW2 whole entry, looked up): as the sequence (Q96SW2 whole entry, looked up) above
# Target sequence in this assay (Q9NYV4 whole entry, looked up): as the sequence (Q9NYV4 whole entry, looked up) above
# [7] = biological target: T1, Protein cereblon/Cyclin-K/Cyclin-dependent kinase 12; assay: Protac activity at human CRBN/CDK12/CycK in human Bel-7402 cells assessed as degradation of CycK measured after 24 hrs by Western blotting assay; format: cell-based
# [8] = biological target: T1, Protein cereblon/Cyclin-K/Cyclin-dependent kinase 12; assay: Protac activity at human CRBN/CDK12/CycK in human MDA-MB-231 cells assessed as degradation of GSPT1 up to 30 uM measured after 24 hrs by Western blotting assay; format: cell-based; settings: dose microM <=30, time 24.0 hrs
# [9] = test system: MDA-MB-231; assay: Synergistic antiproliferative activity against human MDA-MB-231 cells in presence of 3 uM of Olaparib at 1 uM measured after 10 days by SRB staining based clone formation assay relative to control; format: functional; settings: MDA-MB-231, 240 h, time 10 day
# [10] = biological target: T1, Protein cereblon/Cyclin-K/Cyclin-dependent kinase 12; assay: Protac activity at human CRBN/CDK12/CycK in human MDA-MB-231(CRBN/KO) cells assessed as degradation of CDK12 measured after 24 hrs by Western blotting assay; format: cell-based
# [11] = test system: MDA-MB-231; assay: Antiproliferative activity against human MDA-MB-231 cells at 1 uM for 10 days by SRB staining based clone formation assay relative to control; format: functional; settings: MDA-MB-231, 240 h, time 10 day
# [12] = test system: MDA-MB-231; assay: Synergistic antiproliferative activity against human MDA-MB-231 cells in presence of 3 uM of Olaparib at 3 uM measured after 10 days by Chou-Talalay method; format: functional; settings: time 10 day
# [13] = biological target: T1, Protein cereblon/Cyclin-K/Cyclin-dependent kinase 12; assay: Protac activity at human CRBN/CDK12/CycK in human Bel-7402 cells assessed as degradation of GSPT1 upto 30 uM measured after 24 hrs by Western blotting assay; format: cell-based; settings: dose microM <=30, time 24.0 hrs
# [14] = biological target: Protein cereblon/Cyclin-dependent kinase 13 (Homo sapiens) (UniProt Q14004+Q96SW2); assay: Protac activity at human CRBN/CDK13 in human MDA-MB-231 cells assessed as degradation of CDK13 at 0.1 to 30 uM measured after 24 hrs by Western blotting assay; format: cell-based; settings: dose 0.1-30 µM
# Protein cereblon/Cyclin-dependent kinase 13 (Homo sapiens), sequence (Q14004 whole entry, looked up): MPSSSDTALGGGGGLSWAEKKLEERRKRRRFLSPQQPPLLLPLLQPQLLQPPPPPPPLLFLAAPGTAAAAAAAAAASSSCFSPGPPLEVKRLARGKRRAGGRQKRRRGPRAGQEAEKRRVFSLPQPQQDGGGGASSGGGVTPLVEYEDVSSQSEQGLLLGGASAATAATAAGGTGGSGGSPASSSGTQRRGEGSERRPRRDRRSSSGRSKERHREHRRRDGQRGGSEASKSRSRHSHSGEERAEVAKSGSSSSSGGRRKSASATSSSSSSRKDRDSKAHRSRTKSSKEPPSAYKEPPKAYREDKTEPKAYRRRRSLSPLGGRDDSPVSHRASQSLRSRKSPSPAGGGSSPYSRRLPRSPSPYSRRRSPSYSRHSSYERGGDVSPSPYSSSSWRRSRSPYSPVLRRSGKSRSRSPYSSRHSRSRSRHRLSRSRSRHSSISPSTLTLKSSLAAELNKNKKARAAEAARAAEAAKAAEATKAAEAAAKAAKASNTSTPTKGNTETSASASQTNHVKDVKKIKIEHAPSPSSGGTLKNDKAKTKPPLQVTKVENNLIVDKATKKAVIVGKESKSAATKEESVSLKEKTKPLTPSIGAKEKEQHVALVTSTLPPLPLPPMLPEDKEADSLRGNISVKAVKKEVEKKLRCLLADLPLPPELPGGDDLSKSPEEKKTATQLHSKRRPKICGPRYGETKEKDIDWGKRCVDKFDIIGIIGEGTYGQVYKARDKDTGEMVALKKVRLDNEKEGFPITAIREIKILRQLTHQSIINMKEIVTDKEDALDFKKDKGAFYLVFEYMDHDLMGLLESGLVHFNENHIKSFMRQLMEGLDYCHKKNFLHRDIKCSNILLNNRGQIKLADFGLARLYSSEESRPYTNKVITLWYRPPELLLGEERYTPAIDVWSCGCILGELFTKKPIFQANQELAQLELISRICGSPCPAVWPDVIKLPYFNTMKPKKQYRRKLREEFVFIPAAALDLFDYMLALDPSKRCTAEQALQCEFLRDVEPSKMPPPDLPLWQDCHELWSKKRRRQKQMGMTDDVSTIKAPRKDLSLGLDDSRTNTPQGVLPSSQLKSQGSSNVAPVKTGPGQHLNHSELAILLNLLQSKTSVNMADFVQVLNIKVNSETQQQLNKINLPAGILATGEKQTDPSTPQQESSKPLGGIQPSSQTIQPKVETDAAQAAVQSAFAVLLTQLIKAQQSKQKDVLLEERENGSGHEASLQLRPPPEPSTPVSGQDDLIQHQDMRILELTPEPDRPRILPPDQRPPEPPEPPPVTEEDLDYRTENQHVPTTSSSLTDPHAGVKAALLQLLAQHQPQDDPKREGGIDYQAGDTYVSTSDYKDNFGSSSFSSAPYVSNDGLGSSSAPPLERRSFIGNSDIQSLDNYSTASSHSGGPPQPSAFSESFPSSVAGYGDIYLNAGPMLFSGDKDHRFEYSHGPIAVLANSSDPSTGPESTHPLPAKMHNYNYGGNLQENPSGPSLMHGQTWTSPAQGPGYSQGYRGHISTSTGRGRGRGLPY
# Protein cereblon/Cyclin-dependent kinase 13 (Homo sapiens), sequence (Q96SW2 whole entry, looked up): as the sequence (Q96SW2 whole entry, looked up) above
# [15] = biological target: T1, Protein cereblon/Cyclin-K/Cyclin-dependent kinase 12; assay: Protac activity at human CRBN/CDK12/CycK in human MDA-MB-231 cells assessed as degradation of CDK7 up to 30 uM measured after 24 hrs by Western blotting assay; format: cell-based; settings: dose microM <=30, time 24.0 hrs
# [16] = biological target: T1, Protein cereblon/Cyclin-K/Cyclin-dependent kinase 12; assay: Protac activity at human CRBN/CDK12/CycK in human Bel-7402 cells assessed as downregulation of ATM measured after 6 hrs by RT-qPCR method; format: cell-based
# [17] = test system: MDA-MB-231; assay: Antiproliferative activity against human MDA-MB-231 cells at 3 uM for 10 days by SRB staining based clone formation assay relative to control; format: functional; settings: MDA-MB-231, 240 h, time 10 day
# [18] = biological target: T1, Protein cereblon/Cyclin-K/Cyclin-dependent kinase 12; assay: Protac activity at human CRBN/CDK12/CycK in human Bel-7402 cells assessed as degradation of CDK7 up to 30 uM measured after 24 hrs by Western blotting assay; format: cell-based; settings: dose microM <=30, time 24.0 hrs
# [19] = test system: MDA-MB-231; assay: Synergistic antiproliferative activity against human MDA-MB-231 cells in presence of 1 uM of Olaparib at 3 uM measured after 10 days by Chou-Talalay method; format: functional; settings: time 10 day
# [20] = biological target: T1, Protein cereblon/Cyclin-K/Cyclin-dependent kinase 12; assay: Protac activity at human CRBN/CDK12/CycK in human MDA-MB-231 cells assessed as downregulation of Mcl-1 level upto 30 uM measured after 24 hrs by Western blotting assay; format: cell-based; settings: dose microM <=30, time 24.0 hrs
# [21] = biological target: T1, Protein cereblon/Cyclin-K/Cyclin-dependent kinase 12; assay: Protac activity at human CRBN/CDK12/CycK in human Bel-7402 cells assessed as degradation of CDK12 at 1 to 3 uM for 24 hrs in presence of MG132 by Western blotting assay; format: cell-based; settings: dose 1-3 µM
# [22] = biological target: CDK12/Cyclin K (Homo sapiens, UniProt Q9NYV4); assay: Inhibition of human CDK12 (696 to 1082 residues) /cyclinK (1 to 300 residues) using ac-YSPTSPpSYSPTSFpS-YSPTSPpSY-[PEG2]-RR-amid peptide as substrate in presence of ATP measured after 2 hrs by ADP-Glo kinase assay; format: protein-complex assay
# [23] = biological target: T1, Protein cereblon/Cyclin-K/Cyclin-dependent kinase 12; assay: Protac activity at human CRBN/CDK12/CycK in human MDA-MB-231 cells assessed as CDK12 mRNA expression measured after 6 hrs by RT-qPCR method; format: cell-based
# [24] = test system: MDA-MB-231; assay: Synergistic antiproliferative activity against human MDA-MB-231 cells in presence of 1 uM of Olaparib at 1 uM for 10 days by Chou-Talalay method; format: functional; settings: time 10 day
# [25] = biological target: T1, Protein cereblon/Cyclin-K/Cyclin-dependent kinase 12; assay: Protac activity at human CRBN/CDK12/CycK in human Bel-7402 cells assessed as degradation of Cyclin T1 upto 30 uM measured after 24 hrs by Western blotting assay; format: cell-based; settings: dose microM <=30, time 24.0 hrs
structure (smiles),measurement,setting,value
CC(C)n1cnc2c(NCc3nc4cc(F)c(NCCCCCCCCNC(=O)COc5cccc6c5C(=O)N(C5CCC(=O)NC5=O)C6=O)cc4[nH]3)nc(N3CCOCC3)nc21 (stereo not given),Activity,[1],inactive
same,Activity,[2],Active
same,Activity,[3],inactive
same,Activity,[4],inactive
same,Activity,[5],inactive
same,Activity,[6],Active
same,DC50,[7],412 nM
same,Activity,[8],inactive
same,inhibition at 1 µM,[9],99.6%
same,Activity,[10],inactive
same,inhibition at 1 µM,[11],1.05%
same,CI,[12],0.62
same,Activity,[13],inactive
same,Activity,[14],inactive
same,Activity,[15],inactive
same,Activity,[16],Active
same,inhibition at 3 µM,[17],6.47%
same,Activity,[18],inactive
same,CI,[19],0.29
same,Activity,[20],inactive
same,Activity,[21],inactive
same,IC50,[22],645 nM
same,Activity,[23],inactive
same,CI,[24],0.65
same,Activity,[25],inactive

# From ChEMBL document CHEMBL5042492, “Noncovalent CDK12/13 dual inhibitors-based PROTACs degrade CDK12-Cyclin K complex and induce synthetic lethality with PARP inhibitor” (Eur J Med Chem, 2022)
